# Key:
# Leishmania major [1] = assay: Antileishmanial activity against Leishmania major promastigotes incubated for 24 hrs measured by alamar blue staining based fluorescence analysis; assay type: functional, organism-based
# Leishmania major [2] = assay: Potency index, ratio of iC50 for miltefosine IC50 to test compound IC50 for antileishmanial activity against Leishmania major promastigotes; assay type: functional
# Leishmania major [3] = assay: Antileishmanial activity against Leishmania major amastigotes incubated for 24 hrs measured by alamar blue staining based fluorescence analysis; assay type: functional, organism-based
# Leishmania major [4] = assay: Antileishmanial activity against Leishmania major amastigotes incubated for 24 hrs measured by alamar blue staining based fluorescence analysis relative to control; assay type: functional
# Leishmania major [5] = assay: Antileishmanial activity against Leishmania major promastigotes incubated for 24 hrs measured by alamar blue staining based fluorescence analysis relative to control; assay type: functional
# Leishmania major [6] = assay: Potency index, ratio of IC50 for miltefosine IC50 to test compound IC50 for antileishmanial activity against Leishmania major amastigotes; assay type: functional
# Leishmania major [7] = assay: Reversal of antileishmanial activity against Leishmania major promastigotes assessed as parasite survival at IC50 preincubated with 20 uM folic acid for 1 hr followed by compound incubated for 48 hrs (reference value: 22%); assay type: functional
# Leishmania major [8] = assay: Reversal of antileishmanial activity against Leishmania major promastigotes assessed as parasite survival at IC50 preincubated with 100 uM folinic acid for 1 hr followed by compound incubated for 48 hrs (reference value: 22%); assay type: functional
# Leishmania major [9] = assay: Reversal of antileishmanial activity against Leishmania major promastigotes assessed as parasite survival at IC50 preincubated with 20 uM folinic acid for 1 hr followed by compound incubated for 48 hrs (reference value: 22%); assay type: functional
# [10] = Selectivity index, ratio of CC50 for green monkey Vero cells to IC50 for antileishmanial activity against Leishmania major amastigotes; assay type: toxicity, cell-based; details: read-out: Ratio CC50/IC50
# [11] = Cytotoxicity against green monkey Vero cells incubated for 72 hrs by crystal violet staining analysis; assay type: toxicity, cell-based; details: chlorocebus sabaeus
# Leishmania major [12] = assay: Reversal of antileishmanial activity against Leishmania major promastigotes assessed as parasite survival at IC50 preincubated with 100 uM folic acid for 1 hr followed by compound incubated for 48 hrs (reference value: 22%); assay type: functional
# Leishmania major [13] = assay: Reversal of antileishmanial activity against Leishmania major promastigotes assessed as parasite survival at IC50 preincubated with 20 uM folinic acid for 1 hr followed by compound incubated for 48 hrs (reference value: 20%); assay type: functional
# Leishmania major [14] = assay: Reversal of antileishmanial activity against Leishmania major promastigotes assessed as parasite survival at IC50 preincubated with 100 uM folic acid for 1 hr followed by compound incubated for 48 hrs (reference value: 20%); assay type: functional
# Leishmania major [15] = assay: Reversal of antileishmanial activity against Leishmania major promastigotes assessed as parasite survival at IC50 preincubated with 20 uM folic acid for 1 hr followed by compound incubated for 48 hrs (reference value: 20%); assay type: functional
# Leishmania major [16] = assay: Reversal of antileishmanial activity against Leishmania major promastigotes assessed as parasite survival at IC50 preincubated with 100 uM folinic acid for 1 hr followed by compound incubated for 48 hrs (reference value: 20%); assay type: functional
# Leishmania tropica [17] = assay: Antileishmanial activity against Leishmania tropica promastigotes incubated for 24 hrs measured by alamar blue staining based fluorescence analysis; assay type: functional, organism-based
# Leishmania tropica [18] = assay: Antileishmanial activity against Leishmania tropica amastigotes incubated for 24 hrs measured by alamar blue staining based fluorescence analysis; assay type: functional, organism-based
# Leishmania major [19] = assay: Reversal of antileishmanial activity against Leishmania major promastigotes assessed as parasite survival at IC50 preincubated with 20 uM folinic acid for 1 hr followed by compound incubated for 48 hrs (reference value: 24%); assay type: functional
# Leishmania major [20] = assay: Reversal of antileishmanial activity against Leishmania major promastigotes assessed as parasite survival at IC50 preincubated with 20 uM folic acid for 1 hr followed by compound incubated for 48 hrs (reference value: 24%); assay type: functional
# Leishmania major [21] = assay: Reversal of antileishmanial activity against Leishmania major promastigotes assessed as parasite survival at IC50 preincubated with 100 uM folic acid for 1 hr followed by compound incubated for 48 hrs (reference value: 24%); assay type: functional
# Leishmania major [22] = assay: Reversal of antileishmanial activity against Leishmania major promastigotes assessed as parasite survival at IC50 preincubated with 100 uM folinic acid for 1 hr followed by compound incubated for 48 hrs (reference value: 24%); assay type: functional
Structure (SMILES),IC50 (Leishmania major [1]),Ratio IC50 (Leishmania major [2]),IC50 (Leishmania major [3]),further results
CCCCOc1ccc2cc(C(=O)NCCCCCCn3cc(CN4C(=O)CSC4=O)nn3)c(=O)oc2c1,2.27 µM,3,3.88 µM,Activity (Leishmania major [4]): 48%; Activity (Leishmania major [5]): 30%
CCCCOc1ccc2cc(/C(C)=N/OCCCCCCn3cc(CN4CCCC4)nn3)c(=O)oc2c1,0.78 µM,10,0.99 µM,Ratio IC50 (Leishmania major [6]): 8; Activity (Leishmania major [7]): 74%; Activity (Leishmania major [8]): 87%; Activity (Leishmania major [9]): 79%; selectivity ratio [10]: 496; CC50 at 72 h [11]: 490 µM; Activity (Leishmania major [12]): 81%
CCCCOc1ccc2cc(/C(C)=N/OCCCCCCn3cc(CN4CCCCC4)nn3)c(=O)oc2c1,3.87 µM,2,4.47 µM,–
CCCCOc1ccc2cc(/C(C)=N/OCCCCCCn3cc(CSC4=NC(=O)CS4)nn3)c(=O)oc2c1,3.73 µM,2,4.84 µM,–
CCCCOc1ccc2cc(C(=O)NCCCCCCn3cc(CN4CCOCC4)nn3)c(=O)oc2c1,0.4 µM,20,0.68 µM,Activity (Leishmania major [13]): 88%; Activity (Leishmania major [14]): 91%; Activity (Leishmania major [15]): 82%; selectivity ratio [10]: 359; CC50 at 72 h [11]: 244 µM; Activity (Leishmania major [16]): 91%
O=C(N/N=C1\C(=O)N(CC(O)COc2cc(=O)oc3ccccc23)c2ccccc21)c1ccncc1 (stereo not given),–,–,–,IC50 (Leishmania tropica [17]): 0.1 µM; IC50 (Leishmania tropica [18]): 0.87 µM
CCCCOc1ccc2cc(C(=O)NCCCCCCn3cc(CN4CCCC4)nn3)c(=O)oc2c1,0.59 µM,13,0.81 µM,Activity (Leishmania major [19]): 83%; Activity (Leishmania major [20]): 76%; selectivity ratio [10]: 311; CC50 at 72 h [11]: 252 µM; Activity (Leishmania major [21]): 84%; Activity (Leishmania major [22]): 94%
CCCCOc1ccc2cc(C(=O)NCCCCCCn3cc(CSC4=NC(=O)CS4)nn3)c(=O)oc2c1,2.35 µM,3,3.86 µM,Activity (Leishmania major [4]): 48%; Activity (Leishmania major [5]): 30%
CCCCOc1ccc2cc(C(=O)NCCCCCCn3cc(CN4CCCCC4)nn3)c(=O)oc2c1,1.21 µM,7,1.83 µM,–
CCCCOc1ccc2cc(/C(C)=N/OCCCCCCn3cc(CN4C(=O)CSC4=O)nn3)c(=O)oc2c1,2.83 µM,3,3.9 µM,–
CCCCOc1ccc2cc(/C(C)=N/OCCCCCCn3cc(CN4CCOCC4)nn3)c(=O)oc2c1,4.63 µM,2,5.29 µM,–

# Source: ChEMBL document CHEMBL5360567, “Modulating leishmanial pteridine metabolism machinery via some new coumarin-1,2,3-triazoles: Design, synthesis and computational studies” (Eur J Med Chem, 2023)
